The test system of the assay is LXRα and/or LXRβ. Kind of assay: Co-transfection assay (LXRE luciferase reporter, CV-1 cells). Format: cell-based, human. Conditions: for IC50 or EC50 (potency, activation or inhibition): tested as described in Example 33, IC50 or EC50 for LXRα and/or LXRβ, isoform not specified, read-out: activity (IC50 or EC50 for LXR); for EC50: read-out: activity (IC50 or EC50 for LXR), tested as described in Example 33, isoform not specified. The text has this: To measure the ability of compounds to activate or inhibit the transcriptional activity of LXR in a cell based assay, the co-transfection assay was used. It has been shown that LXR functions as a heterodimer with RXR. For the co-transfection assay, expression plasmids for LXR and RXR are introduced via transient transfection into mammalian cells along with a luciferase reporter plasmid that contains one copy of a DNA sequence that is bound by LXR-RXR heterodimers (LXRE; Willy, P. et. al. 1995). Treatment of transfected cells with an LXR agonist increases the transcriptional activity of LXR, which is measured by an increase in luciferase activity.
CV-1 African Green Monkey Kidney Cells Co-transfection expression plasmids, comprising full-length LXRα (pCMX-h LXRα, LXRβ (pCMX-hLXRβ), or RXRα (pCMX-RXR), reporter plasmid (LXREx1-Tk-Luciferase), and control (pCMX-Galactosidase expression vector) (Willey et al. Genes & Development 9 1033-1045 (1995)). Transfection reagent such as FuGENE6 (Roche). 1× Cell lysis buffer (1% Triton X 100 (J T Baker X200-07), 10% Glycerol (J T Baker M778-07), 5 mM Ditriotreitol (Quantum Bioprobe DTT03; add fresh before lysing), 1 mM EGTA (Ethylene Glycol-bis(B-Amino ethyl ether)-N,N,N′,N′-Tetracetic Acid) (Sigma E-4378), 25 mM Tricine (ICN 807420) pH 7.8) 1× Luciferase assay buffer (pH at 7.8) (0.73 mM ATP, 22.3 mM Tricine, 0.11 mM EDTA, 33.3 mM DTT) 1× Luciferrin/CoA (11 mM Luciferin, 3.05 mM Coenzyme A, 10 mM HEPES)
CV-1 cells were prepared 24 hours prior to the experiment by plating them into T-175 flasks or 500 cm^2 dishes in order to achieve 70-80% confluency on the day of the transfection. The number of cells to be transfected was determined by the number of plates to be screened. Each 384 well plate requires 1.92×10^6 cells or 5000 cells per well. DNA Transfection Reagent was prepared by mixing the required plasmid DNAs with a cationic lipid transfection reagent FuGENE6 (Roche) by following the instructions provided with the reagents. Optimal DNA amounts were determined empirically per cell line and size of vessel to be transfected. 10-12 mL of media was added to the DNA Transfection Reagent and this mixture was added to the cells after aspirating media from the T175 cm^2 flask. Cells were then incubated at least 5 hours at 37° C. to prepare screening cells.
Luciferase assay reagent was prepared by combining before use (per 10 mL): 10 mL 1× Luciferase assay buffer; 0.54 mL of 1× Luciferrin/CoA; 0.54 mL of 0.2 M Magnesium sulfate
Assay plates were prepared by dispensing 5 μL, of compound per well of a 384 well plate to achieve final compound concentration of 10 μM and no more than 1% DMSO. Media was removed from the screening cells, the cells trypsinized, harvested cells by centrifugation, counted, and plated at a density of approximately 5000 cells per well in the 384 well assay plate prepared above in a volume of about 45 μL. Assay plates containing both compounds and screening cells (50 μL in total volume) were incubated for 20 hours at 37° C.
After incubation with compounds, media was removed from the cells and lysis buffer (30 μL/well) added. After 30 minutes at ambient temperature, luciferase assay buffer (30 μL/well) was added and the assay plates read on a luminometer (PE Biosystems Northstar reader with on-board injectors, or equivalent). Plates were read immediately after addition of luciferase assay buffer.
The LXR/LNRE co-transfection assay can be used to establish the EC50/IC50 values for potency and percent activity or inhibition for efficacy. Efficacy defines the activity of a compound relative to a high control ((N-(3-((4-fluorophenyl)-(naphthalene-2-sulfonyl)amino)propyl)-2,2-dimethylpropionamide)) or a low control (DMSO/vehicle). The dose response curves are generated from an 8 point curve with concentrations differing by ½ LOG units. Each point represents the average of 4 wells of data from a 384 well plate. […]

A value given as a limit tells only on which side of the number the result lay.

On to `CCS(=O)(=O)c1cc(-c2ccc(-n3cc(C(C)(C)O)nc3Cc3c(Cl)cccc3Cl)cc2)ccc1CO` [Example 8], for which the IC50 or EC50 (potency, activation or inhibition) was under 1000 nM.
For the molecule `CCS(=O)(=O)c1cccc(-c2ccc(-n3cc(C(C)(C)O)nc3Cc3c(F)cccc3Cl)cc2)c1` [Example 10, 2-(2-(2-chloro-6-fluorobenzyl)-1-(3′-(ethylsulfonyl)biphenyl-4-yl)-1H-imidazol-4-yl)propan-2-ol], the IC50 or EC50 (potency, activation or inhibition) is under 1000 nM.
Still for that read-out and setting: for `CCC(O)(CC)c1cn(-c2ccc(-c3cccc(S(=O)(=O)CC)c3)cc2)c(Cc2ccccc2Cl)n1` [Example 14] the value was under 1000 nM.
For the molecule `CCS(=O)(=O)c1cccc(-c2ccc(-n3cc(C(C)(C)O)nc3C(C)(C)c3cccc(Cl)c3Cl)cc2)c1` [Example 22, 2-(2-(2-(2,3-dichloro-phenyl)propan-2-yl)-1-(3′-(ethylsulfonyl)biphenyl-4-yl)-1H-imidazol-4-yl)propan-2-ol], the concentration for a half-maximal effect (EC50) – broadly, the concentration giving half of the maximal effect – is under 1000 nM.
Regarding `Cc1cc(-c2cccc(S(C)(=O)=O)c2)ccc1-n1cc(C(C)(C)O)nc1Cc1cccc(Cl)c1Cl` [Example 23, 2-(2-(2,3-dichlorobenzyl)-1-(3-methyl-3′-(methylsulfonyl)biphenyl-4-yl)-1H-imidazol-4-yl)propan-2-ol], the EC50 is under 1000 nM.
Take `CCS(=O)(=O)c1cccc(-c2ccc(-n3cc(C(C)(C)O)nc3Cc3cccc(Cl)c3Cl)c(C)c2)c1` [Example 24, 2-(2-(2,3-dichlorobenzyl)-1-(3′-(ethylsulfonyl)-3-methylbiphenyl-4-yl)-1H-imidazol-4-yl)propan-2-ol]: the EC50 is under 1000 nM.
On to `CC(C)(O)c1cn(-c2ccc(-c3cccc(S(C)(=O)=O)c3)cc2Cl)c(Cc2cccc(Cl)c2Cl)n1` [Example 25, 2-(1-(3-chloro-3′-(methyl-sulfonyl)biphenyl-4-yl)-2-(2,3-dichlorobenzyl)-1H-imidazol-4-yl)propan-2-ol], for which the EC50 is under 1000 nM.
As for `CCS(=O)(=O)c1cccc(-c2ccc(-n3cc(C(C)(C)O)nc3Cc3cccc(Cl)c3Cl)c(Cl)c2)c1` [Example 26, 2-(1-(3-chloro-3′-(ethyl-sulfonyl)biphenyl-4-yl)-2-(2,3-dichlorobenzyl)-1H-imidazol-4-yl)propan-2-ol], the EC50 was under 1000 nM.
On to `CC(C)(O)c1cn(-c2ccc(-c3cccc(S(C)(=O)=O)c3)cc2)c(CCc2ccccc2Cl)n1` [Example 27, 2-(2-(2-chlorophenethyl)-1-(3′-(methylsulfonyl)biphenyl-4-yl)-1H-imidazol-4-yl)propan-2-ol], for which the EC50 was under 1000 nM.
Same read-out and setting: the same measure for `CCS(=O)(=O)c1cccc(-c2ccc(-n3cc(C(C)(C)O)nc3CCc3ccccc3Cl)cc2)c1` [Example 28, 2-(2-(2-chlorophenethyl)-1-(3′-(ethylsulfonyl)biphenyl-4-yl)-1H-imidazol-4-yl)propan-2-ol]: under 1000 nM.
Consider `CC(C)(O)c1cn(-c2ccc(-c3ccc(CO)c(S(C)(=O)=O)c3)cc2)c(CCc2ccccc2Cl)n1` [Example 29], for which the IC50 or EC50 (potency, activation or inhibition) was under 1000 nM.
Same read-out and setting: for `CC(C)(O)c1cn(-c2ccc(-c3cccc(S(C)(=O)=O)c3)cc2Cl)c(-c2cccc3ccccc23)n1` [Example 30, 2-(1-(3-chloro-3′-(methyl-sulfonyl)biphenyl-4-yl)-2-(naphthalen-1-yl)-1H-imidazol-4-yl)propan-2-ol] the value was under 1000 nM; for `CCS(=O)(=O)c1cccc(-c2ccc(-n3cc(C(C)(C)O)nc3-c3cccc4ccccc34)c(Cl)c2)c1` [Example 31, 2-(1-(3-chloro-3′-(ethyl-sulfonyl)biphenyl-4-yl)-2-(naphthalen-1-yl)-1H-imidazol-4-yl)propan-2-ol], under 1000 nM.
In the case of `CC(C)(O)c1cn(-c2ccc(-c3ccc(CO)c(S(C)(=O)=O)c3)cc2Cl)c(-c2cccc3ccccc23)n1` [Example 32, 2-(1-(3-chloro-4′-(hydroxy-methyl)-3-(methylsulfonyl)biphenyl-4-yl)-2-(naphthalen-1-yl)-1H-imidazol-4-yl)propan-2-ol], the IC50 or EC50 (potency, activation or inhibition) is under 1000 nM.

The values are drawn from patent US9000022B2 (Exelixis Patent Company LLC, priority 2005, dated 2015).
